Measured values as given in patent US20040033982A1, “Viral inhibition by n-docosanol” (priority 2001, published 2004).
“Also recorded” adds a separate entry of the source. Like-named read-outs stand apart in the source and are kept apart here.

What was measured:
Assay type in all cases: cell-based
lipid-enveloped viruses = experiment: Spectrum of antiviral activity against lipid-enveloped viruses in vitro
HSV [1] = experiment: Inhibition of HSV replication, Tetronic versus Pluronic suspension
Excerpt: An initial step in conducting such studies involved switching to a different surfactant or suspending n-docosanol. Tetronic 908 is closely related to Pluronic F68; both are block copolymers of ethylene oxide and propylene oxide. However, whereas Pluronic is a bifunctionaI polymer with a molecular weight of 8,400, Tetronic 908 is a tetrfunctional copolymer, produced by adding propylene oxide and ethylene oxide to ethylenediamine and resulting in a molecule with an average molecular weight of 25,000. […] This appears to relate to the 3-fold higher levels of metabolic conversion in cells treated with n-docosanol in Tetronic.

HSV-1 or HSV-2 = experiment: Inhibition of HSV production and plaque formation in Vero cells
Protocol: Cultured cells were placed in 35-mm wells (2 ml; 3×10^5 cells/ml) in DMEM containing L-glucamine, pennstrep (cDMEM) and supplemented with 5% FCS. n-Docosanol or the corresponding control vehicle (lacking n-docosanol) was added at the outset of the culture. All cultures were then inoculated with 175 p.f.u. of HSV-1 or HSV-2.
(§1) The cultures were incubated for an additional 42-44 h, washed once with fresh medium, stained and fixed (the staining/fixative consists of 1.25 mg/ml of carbol-fuchsin plus 2.5 mg/ml of methylene blue in methanol) and then scored for HSV-induced plaques using a dissecting microscope (10× magnification). Thc data are averages of duplicate cultures, which varied by no more than 5-10%.

HSV-I = experiment: Binding of [3H]HSV-I to Vero cells; details: virus at 2 p.f.u./cell; n-docosanol 15 mM
Excerpt: Attachment of HSV-I to specific cell surface receptors is unaffected in n-docosanol-treated cells. Previous studies have verified that attachment of HSV-1 to specific cell surface receptors is unaffected in n-docosanol-treated cells. […] Heparin inhibited this interaction 96%.

HSV-1 = HSV-1 plaque assay in Vero cells, time of drug incubation and removal; details: 9 mM
Protocol: (A) Vero cells were plated and incubated with 9 mM n-docosanol, the corresponding control vehicle or no addition for 0, 3, 6, or 24 h prior to the addition of HSV-1. The viral plaque assay was continued and the number of p.f.u. determined. The data are expressed as % inhibition compared to wells receiving no treatment. (B) Vero cells were plated, n-docosanol or the corresponding control vehicle was added and cells were incubated at 37° C. in 10% humidified CO2. After 21, 24, 25, 26, and 27 h (6, 3, 2, 1, and 0 h before the addition of HSV-1), media containing drug was removed and the cells were washed with media. After a total of 27 h, HSV-1 was added to all wells. Two hours later virus-containing media was removed and replaced with fresh media lacking virus or drugs. The cultures were incubated and processed for determination of the number of HSV-induced plaques as in (A). […]
as §1, with “Thc data are averages of duplicate cultures, which varied by no more than 5-10%.” left out

HSV-2 (333) = experiment: Entry of HSV-2 (333) into CHO-IEβ8 cells (beta-galactosidase, OD600); details: for inhibition at 30000 µM: Human alphaherpesvirus 2, 30 mM
Protocol: CHO-IEβ8 cells were seeded into 24-well plates. After cell attachment, heparin, n-docosanol-vehicle, vehicle alone, or no agent (control) was added. Five to six hours after infection, the cells were processed, X-gal was added, and the absorbance at 600 nm was determined.
Twenty-four hours before infection, cultured cells were seeded into 24-well (16-mm) plates at 2.5×10^6 cells/well in 0.5 ml cDMEM supplemented with 10% fetal bovine serum (FES). After cell attachment (4-6 h later) heparin, n-docosanol-surfactant, or surfactant alone was added to the cells in 0.5 ml DMEM/10% FES. The agents were dissolved in the medium at two times the desired final concentration. For infection, 0.7 ml of medium was removed from each well and 25 μl of virus suspension was added to the remaining 0.3 ml to give a virus dose of at least 20 p.f.u./cell The plates were rocked at 37° C. for 3 h and then put in a 37° C. CO2 incubator for another 2-3 h.
At 5-6 h after infection, the cells were fixed with PES containing 2% formaldehyde and 0.2% glutaraldehyde, washed, then permeabilized with 0.02% NP-40, 0.01% deoxycholate and 2 mM MgCl2. After washing again, 5-bromo-4-chloro-3indolyl-β-galactopyranoside (X-gal) was added for development of blue product. The substrate was removed and replaced with 50% glycerol. Plates were photographed. To quantify the amount of color in each well the glycerol was removed from all wells that were then washed 3× with distilled H2O. DMSO (0.6 ml) was added to solubilize the dye and, after transferring 100 μl of each sample well from the 24-well plate to a 96-well plate, the OD600 was recorded using a 96-well plate reader.
n-Docosanol inhibits HSV-2(333) infectivity of CHO-IEβ8 cells. To further narrow the point of inhibition of viral entry in n-docosanol-treated cells, the effects of the drug on entry of HSV-2 into CHO-IEβ8 cells selected by transfection of CHO cells with a plasmid carrying a Pur selectable marker and lacZ under control of the HSV-1 ICP4 promoter was investigated. In this cell line, β-gal expression is induced upon entry of HSV virion proteins into the cell, an event which occurs immediately upon viral entry into the cellular cytoplasm and which is not dependent on virion transport to the nucleus.

HSV [2] = experiment: HSV antigens by ELISA, ICP4 immunofluorescence, secondary plaque assay
Excerpt: Thus, the amounts of both HSV core and envelope protein antigens detectable by ELISA, as well as the numbers of infected cells expressing the intranuclear HSV-specific immediate-early protein, ICP4, by immunofluorescence, are reduced by more than 80%. Finally, the replication of infectious virions as measured in secondary plaque assay cultures is markedly diminished by 99% or more in n-docosanol treated cells.

SMILES: CCCCCCCCCCCCCCCCCCCCCCO [n-docosanol]
- HUMAN VIRUSES shown to be susceptible (lipid-enveloped viruses): Respiratory Syncytial Virus; also recorded: Cytomegalovirus; also recorded: Influenza A; also recorded: HIV-1; also recorded: Herpes Simplex-1 & 2; also recorded: Varicella Zoster Virus; also recorded: Human Herpesvirus-6
- MURINE VIRUSES shown to be susceptible (lipid-enveloped viruses): Cytomegalovirus; also recorded: Friend Leukemic Virus; also recorded: LP-BM5 Virus
- ED50 for inhibition of HSV replication relative to Tetronic (HSV [1]; suspended in Pluronic): approximately 3 times higher
- ED50 for inhibition of HSV replication (HSV [1]; suspended in Tetronic): 5 to 10 mM
- ID50 for inhibition of HSV production (HSV-1 or HSV-2): 4 mM
- ID50 for inhibition of plaque formation (HSV-1 or HSV-2): 9 mM
- inhibition of [3H]HSV-I binding (HSV-I): bound normal levels
- inhibition of plaque formation (HSV-1; 6-h interval between drug removal and HSV-I addition): no inhibition of HSV-I plaque formation was observed
- inhibition at 9000 µM (HSV-1; Human alphaherpesvirus 1, Vero, added simultaneously with, or 3 h prior to virus addition, read-out: inhibition of plaque formation): 28%
- maximal observed inhibition in comparison to untreated cells (HSV-2 (333)): approximately 75%
- reduction in the expression of β-galactosidase (HSV-2 (333)): ≤ 80%
- inhibition at 30000 µM (HSV-2 (333); read-out: inhibition of color production compared to Tetronic 908-treated cells): 55%
- inhibition at 30000 µM (HSV-2 (333); read-out: inhibition of color production compared to untreated cells): 40%
- reduction of HSV core and envelope protein antigens detectable by ELISA (HSV [2]): more than 80%
- reduction of numbers of infected cells expressing ICP4 by immunofluorescence (HSV [2]): more than 80%
- reduction of replication of infectious virions in secondary plaque assay cultures (HSV [2]): ≥ 99%
